# Experimental data published in US20260258446A1, “SMALL MOLECULE ENHANCERS FOR ADENO-[…] PRODUCTION” (priority 2023, published 2026).
# Where a name gives a salt, the structure may show the parent alone.
# What was measured:
# [1] = test system: AAV8 production in Viral Production 2.0 cells (293-VP 2.0); assay: AAV8 production by transient transfection, genome titer by dPCR; assay type: cell-based, human
# Description: Candidate small molecules were selected via literature-based searches and encompassed general classes of epigenetic modifiers, PI3K inhibitors, cell cycle modulators, innate immune activators/inhibitors, proteosome inhibitors, kinase inhibitors, free fatty acids, endoplasmic reticulum stress inducers/inhibitors, and autophagy activators/inhibitors. Various candidate small molecule were analyzed in AAV2 or AAV8 production. The initial test concentrations of each small molecule were determined by previous uses of the molecules found in the literature for a variety of applications. For each candidate small molecule, cells were triple transfected with three plasmids encoding the rep/cap genes, gene of interest flanked by […] terminal repeats (ITR) and adenovirus helper molecules. The rep/cap plasmid encoded either AAV2 or AAV8 capsids. The plasmid DNA (pDNA) was combined with the TransIT-VirusGEN® transfection reagent and added to 293-derived suspension cells. The cells were then immediately treated with the small molecule. AAV production occurred over the course of 72 hours, after which virus was harvested. Genomes were assessed by digital PCR (dPCR), and capsids by a specific ELISA or homogeneous based luciferase assay utilizing capsid specific antibodies. The percentage of full capsids was calculated by dividing the total number of genomes by the total number of capsids. A small molecule was considered a successful enhancer of AAV production if it increased AAV as measured by viral genomes 1.5-fold over an untreated control and was not detrimental to the percentage of full capsids, or if it increased the percentage of full capsids 1.5-fold over an untreated control and was not detrimental to the total number of produced AAV as measured by viral genomes. The experimental design may identify small molecules that enhance AAV production.
# Viral Production Cells 2.0 (293-VP 2.0; Thermo Fisher Cat. No. A49784) were maintained in Viral Production Media (VPM; Thermo Fisher Cat. No. A4817901) supplemented with 4 mM GlutaMAX™ (Thermo Fisher Cat. No. 35050061). Expi293F™ Cells (Thermo Fisher Cat. No. A14527) were maintained in Expi293™ Expression Medium (Thermo Fisher Cat. No. A1435101). Both cell lines were maintained at the supplier recommended 8% CO2 and 37° C. on a 2.5 cm orbital shaker at 125 rpm.
# The day before transfection, cells were passaged to ensure the cells were actively dividing and would reach a density of 4.0-5.0×10^6 cells/mL the day of transfection. The day of transfection, cells were seeded in 6-well non-tissue culture treated plates (Corning, Cat. No. 351146) at a density of 3.0×10^6 cells/mL. A 1 mg/mL DNA solution composed of a 1:1:1 plasmid concentration ratio of a transfer vector (Agilent, Cat. No. 240074-51), an AAV2 RepCap Vector (Aldevron, Cat. No. pALD-AAV2) or an AAV5 RepCap Vector (Aldevron, Cat. No. pALD-AAV5) or an AAV8 RepCap vector (Genemedi, Cat. No. P-RC09) or an AAV9 RepCap vector (Genemedi, Cat. No. p-RC13), and a helper vector (Agilent Cat. No. 240071-54) was formed in water. For each milliliter of culture, 3 μL of TransIT-VirusGEN® (Mirus Bio LLC, Cat. No. MIR 6700) and 2 μg of DNA were added to a final volume of 100 μL Phosphate-buffered saline (PBS; Corning, Cat. No. 21-040-CV) for a final transfection reagent to DNA ratio of 1.5:1. This mixture was incubated at room temperature for 30 minutes to allow transfection complexes to form, after which 100 μL was added per milliliter of culture for a final complexation volume of 10%. In some instances, cells were transfected with 1 μL FectoVIR®-AAV (Polyplus, Cat. No. 101000044) per million cells and 1 μg DNA per million cells for a final transfection reagent to DNA ratio of 1:1, and a final complexation volume of 5%. In some instances, cells were transfected with 1 μL PEIPro® (Polyplus, Cat. No. 101000017) per million cells and 1 μg DNA per million cells for a final transfection reagent to DNA ratio of 1:1, and a final complexation volume of 10%. […]
# [2] = test system: AAV2 or AAV8 production in 293-derived suspension cells; assay: cells; assay type: cell-based, human
# Description: Various candidate small molecule were analyzed in AAV2 or AAV8 production. […] For each candidate small molecule, cells were triple transfected with three plasmids encoding the rep/cap genes, gene of interest flanked by internal terminal repeats (ITR) and adenovirus helper molecules. The rep/cap plasmid encoded either AAV2 or AAV8 capsids. The plasmid DNA (pDNA) was combined with the TransIT-VirusGEN® transfection reagent and added to 293-derived suspension cells. The cells were then immediately treated with the small molecule. AAV production occurred over the course of 72 hours, after which virus was harvested. Genomes were assessed by digital PCR (dPCR), and capsids by a specific ELISA or homogeneous based luciferase assay utilizing capsid specific antibodies. The percentage of full capsids was calculated by dividing the total number of genomes by the total number of capsids. A small molecule was considered a successful enhancer of AAV production if it increased AAV as measured by viral genomes 1.5-fold over an untreated control and was not detrimental to the percentage of full capsids, or if it increased the percentage of full capsids 1.5-fold over an untreated control and was not detrimental to the total number of produced AAV as measured by viral genomes. […]
# [3] = from about 0.5 μM to about 40 μM
smiles,measurement,setting,value
"CC[C@@H]1C(=O)N(C)c2cnc(Nc3ccc(C(=O)NC4CCN(C)CC4)cc3OC)nc2N1C1CCCC1 [Compound A, (R)-4-((8-cyclopentyl-7-ethyl-5-methyl-6-oxo-5,6,7,8-tetrahydropteridin-2-yl)amino)-3-methoxy-N-(1-methylpiperidin-4-yl)benzamide]",Successful enhancer of AAV8 production (genomes or % full capsids 1.5-fold over untreated control),[1]; from about 0.025 μM to about 1 μM,Successful enhancers
"CN[C@H]1CCc2cc(OC)c(OC)c(OC)c2-c2ccc(OC)c(=O)cc21 [Compound B, (S)-1,2,3,10-tetramethoxy-7-(methylamino)-6,7-dihydrobenzo[a]heptalen-9 (5H)-one]",Successful enhancer of AAV8 production (genomes or % full capsids 1.5-fold over untreated control),[1]; from about 0.0673 μM to about 0.2019 μM,Successful enhancers
"CC(=O)O[C@@]12CO[C@@H]1C[C@H](O)[C@@]1(C)C(=O)[C@H](O)C3=C(C)[C@@H](OC(=O)[C@H](O)[C@@H](NC(=O)OC(C)(C)C)c4ccccc4)C[C@@](O)([C@@H](OC(=O)c4ccccc4)[C@H]21)C3(C)C [Compound C, [(1S,2S,3R,4S,7R,9S, 10S, 12R, 15S)-4-acetyloxy-1,9,12-trihydroxy-15-[(2R,3S)-2-hydroxy-3-[(2-methylpropan-2-yl)oxycarbonylamino]-3-phenylpropanoyl]oxy-10,14,17,17-tetramethyl-11-oxo-6-oxatetracyclo[11.3.1.0^3,10.0^4,7]heptadec-13-en-2-yl]benzoate]",Successful enhancer of AAV8 production (genomes or % full capsids 1.5-fold over untreated control),[1]; from 1 μM to about 20 μM,Successful enhancers
same,"Increase in AAV8 titers (""Top Hits"")",[1]; from about 1 μM to about 20 μM,highest increase in AAV8 titers
"CCn1cc(-c2ccnc3[nH]c(-c4cccc(CN(C)C)c4)cc23)c(-c2ccc(NC(=O)N(C)C)cc2)n1 [Compound D, 3-(4-(4-(2-(3-((dimethylamino)methyl)phenyl)-1H-pyrrolo[2,3-b]pyridin-4-yl)-1-ethyl-1H-pyrazol-3-yl)phenyl)-1,1-dimethylurea]",Successful enhancer of AAV8 production (genomes or % full capsids 1.5-fold over untreated control),[1]; about 0.05 μM,Successful enhancers
same,fold induction at 0.05 µM,"[2]; Homo sapiens, 72 h, read-out: Fold increase in genomes over no enhancer control",1.57 to 1.91
"CC(=O)O[C@H]1C(=O)[C@@]2(C)[C@H]([C@H](OC(=O)c3ccccc3)[C@]3(O)C[C@H](OC(=O)[C@H](O)[C@@H](NC(=O)c4ccccc4)c4ccccc4)C(C)=C1C3(C)C)[C@]1(OC(C)=O)CO[C@@H]1C[C@@H]2O [Compound F, [(1S,2S,3R,4S,7R,9S,10S,12R, 15S)-4,12-diacetyloxy-15-[(2R,3S)-3-benzamido-2-hydroxy-3-phenylpropanoyl]oxy-1,9-dihydroxy-10,14,17,17-tetramethyl-11-oxo-6-oxatetracyclo[11.3.1.0^3,10.0^4,7]heptadec-13-en-2-yl]benzoate]","Increase in AAV8 titers (""Top Hits"")",[1]; [3],highest increase in AAV8 titers
same,Successful enhancer of AAV8 production (genomes or % full capsids 1.5-fold over untreated control),[1]; [3],Successful enhancers
"CC(=O)NCC(=O)N1[C@@H]2CC[C@H]1c1ccc(Nc3ncc(C(F)(F)F)c(NC4CCC4)n3)cc12 [Compound G, N-[2-[(1R,8S)-4-[[4-(cyclobutylamino)-5-(trifluoromethyl)pyrimidin-2-yl]amino]-11-azatricyclo[6.2.1.0^2,7]undeca-2 (7),3,5-trien-11-yl]-2-oxoethyl]acetamide]",Successful enhancer of AAV8 production (genomes or % full capsids 1.5-fold over untreated control),[1]; from about 0.02 μM to about 0.5 μM,Successful enhancers
"O=C(CCCCCCC(=O)Nc1ccccc1)NO [SAHA, suberoylanilide hydroxamic acid]",Successful enhancer of AAV8 production (genomes or % full capsids 1.5-fold over untreated control),[1]; from about 0.5 μM to about 1 μM,Successful enhancers
CCC(=O)[O-].[Na+] [Sodium Propionate],Fold increase in genomes over no enhancer control,[2]; 5000 μM-10000 μM,1.20-1.48 fold
CCCC(CCC)C(=O)[O-].[Na+] [Valproic Acid Sodium Salt],Successful enhancer of AAV8 production (genomes or % full capsids 1.5-fold over untreated control),[1]; from about 400 μM to about 2500 μM,Successful enhancers
CC[C@]1(O)C[C@@H]2CN(CCc3c([nH]c4ccccc34)[C@@](C(=O)OC)(c3cc4c(cc3OC)N(C)[C@H]3[C@@](O)(C(=O)OC)[C@H](OC(C)=O)[C@]5(CC)C=CCN6CC[C@]43[C@@H]65)C2)C1 [Vinblastine Sulfate],Successful enhancer of AAV8 production (genomes or % full capsids 1.5-fold over untreated control),[1]; from about 2.5 μM to about 15 μM,Successful enhancers
